Measured values as given in patent US20060166900A1, “Salt of morphine-6-glucuronide” (CeNeS Limited, priority 2002, published 2006).

Columns and labels:
Format in all cases: physicochemical
[1] = Visual appearance on storage (Example 3)
Description: (§1) Each test material was stored between 2-8*C prior to placing on stability. Each material was sub-divided into 900 mg aliquots, transferred to brown opaque HDPE plastic bottles and flushed with Argon prior to sealing. Sufficient samples were provided for each time point as well as spares for each storage condition. The samples were placed in appropriate incubators previously commissioned at storage conditions 25° C./60% RH, 40° C./75% RH and 60° C.
The samples were stored for analysis according to the following table: […]

[2] = Water content by Karl Fisher analysis on storage (Example 3)
Description: Water content (% w/w) by Karl Fisher analysis
as §1
Water Content by Karl Fisher Analysis
Water content was determined in duplicate on an aliquot of equilibrated material (approximately 100 mg) using a Tritrino 720 KFS Titrator.

[3] = Colour of solution by visible spectrophotometry on storage (Example 3); details: 5% w/v solution in water
Description: Colour of solution by UV spectrophotometry.
as §1
Colour by Visible Spectrophotometry
A 5% w/v solution of test material was prepared in water and the absorbance measured at 420 nm in a 1 cm silica cell using a Unicam UV4 Visible/UV spectrophotometer.

[4] = Stability indicating HPLC assay and related substances on storage (Example 3)
Description: Assay (% w/w) and related substances determination
as §1
Testing Procedures Test for Identity Content and Impurities
Testing was performed in duplicate (2×25 mg) in accordance with a stability indicating HPLC assay method. The assay results were reported as M6G as is, M6G as the anhydrous, solvent free material and the anhydrous solvent free material corrected for the salt form using the relevant conversion factor.

## CN1CCC23c4c5ccc(O)c4OC2C(OC2OC(C(=O)O)C(O)C(O)C2O)C=CC3C1C5.O=P(O)(O)O (stereo not shown) [Morphine-6-glucuronide phosphate]
[1]; 1 month, 25° C./60% RH
  Appearance: White crystalline powder
[1]; 1 month, 40° C./75% RH
  Appearance: Slightly yellow crystalline powder
[1]; 1 month, 60° C.
  Appearance: Pale yellow crystalline powder
[1]; 3 months, 25° C./60% RH
  Appearance: White crystalline powder
[1]; 3 months, 25° C./60% RH, listed as phosphate
  Appearance: white crystalline solids
[1]; 3 months, 40° C./75% RH
  Appearance: Slightly yellow crystalline powder
[1]; Initial
  Appearance: White crystalline powder
[2]; 1 month, 25° C./60% RH
  Moisture: 3.91 % w/w
[2]; 1 month, 40° C./75% RH
  Moisture: 9.28 % w/w
[2]; 1 month, 60° C.
  Moisture: 5.12 % w/w
[2]; 3 months, 25° C./60% RH
  Moisture: 5.06 % w/w
[2]; 3 months, 40° C./75% RH
  Moisture: 11.88 % w/w
[2]; 40° C./75% RH
  increase in moisture content compared to initial: around 8%
[2]; Initial
  Moisture: 3.12 % w/w
[3]; 1 month, 25° C./60% RH
  Colour: 0.053 Abs@420 nm
[3]; 1 month, 40° C./75% RH
  Colour: 0.308 Abs@420 nm
[3]; 1 month, 60° C.
  Colour: 0.787 Abs@420 nm
[3]; 3 months, 25° C./60% RH
  Colour: 0.098 Abs@420 nm
[3]; 3 months, 40° C./75% RH
  Colour: 0.878 Abs@420 nm
[3]; Initial
  Colour: 0.034 Abs@420 nm
[4]; 1 month, 25° C./60% RH
  Known Related Substances HN33177: 0.78%
  Known Related Substances HN67003: 0.04%
  Known Related Substances HN75083: 0.03%
  M6G Assay, Anhydrous basis: 91.37 % w/w
  M6G Assay, As is basis: 84.57 % w/w
  M6G Assay, Corrected for the salt form: 110.76 % w/w
  Total Known: 0.85%
  Total Related Substances: 1.41%
  Total Unknown: 0.56%
[4]; 1 month, 40° C./75% RH
  Known Related Substances HN33177: 0.70%
  Known Related Substances HN67003: 0.53%
  Known Related Substances HN75083: 0.14%
  M6G Assay, Anhydrous basis: 92.00 % w/w
  M6G Assay, As is basis: 80.20 % w/w
  M6G Assay, Corrected for the salt form: 111.52 % w/w
  Total Known: 1.37%
  Total Related Substances: 3.44%
  Total Unknown: 2.07%
[4]; 1 month, 60° C.
  Known Related Substances HN33177: 0.70%
  Known Related Substances HN67003: 0.90%
  Known Related Substances HN75076: 0.03%
  Known Related Substances HN75083: 0.27%
  Known Related Substances Morphine: 0.18%
  M6G Assay, Anhydrous basis: 88.33 % w/w
  M6G Assay, As is basis: 80.69 % w/w
  M6G Assay, Corrected for the salt form: 107.08 % w/w
  Total Known: 2.08%
  Total Related Substances: 5.43%
  Total Unknown: 3.35%
[4]; 3 month assay data
  stability based on % w/w assay: most stable
[4]; 3 months, 25° C./60% RH
  Known Related Substances HN33177: 0.78%
  Known Related Substances HN67003: 0.16%
  Known Related Substances HN75076: 0.03%
  Known Related Substances HN75083: 0.19%
  Known Related Substances Morphine: 0.07%
  M6G Assay, Anhydrous basis: 91.16 % w/w
  M6G Assay, As is basis: 84.25 % w/w
  M6G Assay, Corrected for the salt form: 110.50 % w/w
  Total Known: 1.23%
  Total Related Substances: 2.31%
  Total Unknown: 1.08%
[4]; 3 months, 40° C./75% RH
  Known Related Substances HN33177: 0.59%
  Known Related Substances HN67003: 0.75%
  Known Related Substances HN75076: 0.12%
  Known Related Substances HN75083: 0.06%
  Known Related Substances Morphine: 0.32%
  M6G Assay, Anhydrous basis: 92.40 % w/w
  M6G Assay, As is basis: 79.02 % w/w
  M6G Assay, Corrected for the salt form: 112.01 % w/w
  Total Known: 1.84%
  Total Related Substances: 5.99%
  Total Unknown: 4.15%
[4]; Initial
  Known Related Substances HN33177: 0.75%
  Known Related Substances HN67003: 0.04%
  Known Related Substances HN75083: 0.07%
  M6G Assay, Anhydrous basis: 89.21 % w/w
  M6G Assay, As is basis: 83.90 % w/w
  M6G Assay, Corrected for the salt form: 108.12 % w/w
  Total Known: 0.86%
  Total Related Substances: 0.86%
  Total Unknown: 0.00%
[4]; all storage conditions, material a phosphate/base mixture
  assay values throughout the study: around 110%
